Values of other authors as cited in US20060122127A1, “Methods for reducing the side effects associated with mirtzapine treatment” (Cypress Bioscience, Inc., priority 2004, published 2006).

What was measured:
[1] = 100-200 mg/d, patients with neuropathic pain
[2] = obese patients
[3] = system: tonic extension seizures induced by maximal electroshock; conditions: animals
[4] = system: clonic seizures induced by subcutaneous pentylenetetrazol; conditions: animals

patients with weight gain of greater than or equal to 7% of body weight (controlled studies (placebo 0%))	patients reporting appetite increase (controlled studies (placebo 2%))	SMILES	patients whose subjective ratings of pain improved by at least 50% [1]	loss of body weight ([2]; 32 week extension phase (placebo 1.8% loss))	reduction of body weight ([2]; following 16 weeks of therapy (placebo 1% loss))	anticonvulsant activity against tonic extension seizures [3]	anticonvulsant activity against clonic seizures [4]
5.9%	6%	CN(C)CCC=C1c2ccccc2CCc2ccccc21 [amitriptyline]	–	–	–	–	–
–	–	NS(=O)(=O)Cc1noc2ccccc12 [zonisamide, 1,2-benzisoxazole-3-methanesulfonamide]	59%	9.4%	6%	effective	ineffective
